Where a name gives a salt, the structure may show the parent alone.
These molecules were tested against rat TRPV1 (Rattus norvegicus (Rat), UniProt O35433). Details: read-out: Rat IC50.
rat TRPV1, sequence (O35433 whole entry): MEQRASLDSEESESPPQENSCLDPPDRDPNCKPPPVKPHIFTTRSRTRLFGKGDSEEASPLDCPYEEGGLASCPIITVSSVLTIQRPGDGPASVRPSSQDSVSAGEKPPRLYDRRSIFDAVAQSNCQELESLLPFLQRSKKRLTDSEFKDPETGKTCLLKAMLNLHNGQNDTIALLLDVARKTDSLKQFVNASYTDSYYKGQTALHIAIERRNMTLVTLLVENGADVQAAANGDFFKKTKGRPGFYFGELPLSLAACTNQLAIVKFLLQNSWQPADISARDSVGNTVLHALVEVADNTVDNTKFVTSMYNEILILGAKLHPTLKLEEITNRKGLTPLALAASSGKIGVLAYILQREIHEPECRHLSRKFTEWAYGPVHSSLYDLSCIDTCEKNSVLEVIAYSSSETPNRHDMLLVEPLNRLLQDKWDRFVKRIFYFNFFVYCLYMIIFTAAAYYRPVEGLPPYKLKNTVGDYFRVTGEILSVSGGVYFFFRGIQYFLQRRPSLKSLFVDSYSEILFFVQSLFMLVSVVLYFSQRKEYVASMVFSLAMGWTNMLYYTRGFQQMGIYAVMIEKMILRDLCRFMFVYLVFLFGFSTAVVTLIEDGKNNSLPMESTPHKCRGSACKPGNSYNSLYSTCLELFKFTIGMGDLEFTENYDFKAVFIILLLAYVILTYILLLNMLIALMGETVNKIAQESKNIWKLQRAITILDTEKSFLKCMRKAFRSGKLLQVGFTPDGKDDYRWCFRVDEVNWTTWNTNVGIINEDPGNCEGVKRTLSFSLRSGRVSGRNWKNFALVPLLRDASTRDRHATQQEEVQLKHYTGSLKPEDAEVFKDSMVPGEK

Point of comparison: `COCCN(C)c1nc2c(c(Nc3ccc(C(C)(C)C)cc3)n1)CCN(c1ncccc1C(F)(F)F)CC2` [Example 257, N^4-[4-(1,1-Dimethylethyl)phenyl]-N^2-methyl-N^2-[2-(methyloxy)ethyl]-7-[3-(trifluoromethyl)pyridin-2-yl]-6,7,8,9-tetrahydro-5H-pyrimido[4,5-d]azepine-2,4-diamine], IC50 20 nM. Against it:
- CC(C)c1nc2c(c(NCc3c(Cl)cccc3Cl)n1)CCN(c1ncccc1C(F)(F)F)CC2 [Example 120, N-[(2,6-Dichlorophenyl)methyl]-2-(1-methylethyl)-7-[3-(trifluoromethyl)pyridin-2-yl]-6,7,8,9-tetrahydro-5H-pyrimido[4,5-d]azepin-4-amine] — 600-fold higher, 12000 nM
- COCCNc1nc2c(c(Nc3ccc(C(F)(F)F)cc3)n1)CCN(c1ncccc1C(F)(F)F)CC2 [Example 213, N^2-[2-(Methyloxy)ethyl]-N^4-[4-(trifluoromethyl)phenyl]-7-[3-(trifluoromethyl)pyridin-2-yl]-6,7,8,9-tetrahydro-5H-pyrimido[4,5-d]azepine-2,4-diamine trifluoroacetic acid salt] — 5.5-fold higher, 110 nM
- CN1CCC(C)(C)c2ccc(Nc3nc(SCc4ccccc4)nc4c3CCN(c3ncccc3C(F)(F)F)CC4)cc21 [Example 370, 2-[(Phenylmethyl)sulfanyl]-7-[3-(trifluoromethyl)pyridin-2-yl]-N-(1,4,4-trimethyl-1,2,3,4-tetrahydroquinolin-7-yl)-6,7,8,9-tetrahydro-5H-pyrimido[4,5-d]azepin-4-amine] — 130-fold higher, 2610 nM
- CC(C)(C)c1ccc(Nc2nc(-c3ccccc3)nc3c2CCN(c2ncccc2C(F)(F)F)CC3)cc1 [Example 6, (4-tert-Butyl-phenyl)-[2-phenyl-7-(3-trifluoromethyl-pyridin-2-yl)-6,7,8,9-tetrahydro-5H-pyrimido[4,5-d]azepin-4-yl]-amine] — 24-fold higher, 490 nM
- Cc1nc2ccccc2nc1N1CCc2nc(C(C)C)nc(Nc3ccc(C(C)(C)C)cc3)c2CC1 [Example 33, (4-tert-Butyl-phenyl)-[2-isopropyl-7-(3-methyl-quinoxalin-2-yl)-6,7,8,9-tetrahydro-5H-pyrimido[4,5-d]azepin-4-yl]-amine] — 5.5-fold higher, 110 nM
- CC(C)N1CCC(Oc2nc3c(c(Nc4ccc(C(F)(F)F)cc4)n2)CCN(c2ncccc2C(F)(F)F)CC3)C1 (stereo not shown) [Example 315, 2-{[1-(1-Methylethyl)pyrrolidin-3-yl]oxy}-N-[4-(trifluoromethyl)phenyl]-7-[3-(trifluoromethyl)pyridin-2-yl]-6,7,8,9-tetrahydro-5H-pyrimido[4,5-d]azepin-4-amine] — 280-fold higher, 5520 nM
- CN1CCC(C)(C)c2ccc(Nc3nc(Sc4ccccc4)nc4c3CCN(c3ncccc3C(F)(F)F)CC4)cc21 [Example 352, 2-(Phenylsulfanyl)-7-[3-(trifluoromethyl)pyridin-2-yl]-N-(1,4,4-trimethyl-1,2,3,4-tetrahydroquinolin-7-yl)-6,7,8,9-tetrahydro-5H-pyrimido[4,5-d]azepin-4-amine] — higher, > 6670 nM
- FC(F)(F)c1ccc(Nc2nc(N3CCC3)nc3c2CCN(c2ncccc2C(F)(F)F)CC3)cn1 [Example 217, 2-Azetidin-1-yl-7-[3-(trifluoromethyl)pyridin-2-yl]-N-[6-(trifluoromethyl)pyridin-3-yl]-6,7,8,9-tetrahydro-5H-pyrimido[4,5-d]azepin-4-amine] — 20-fold higher, 390 nM
- FC(F)(F)c1ccc(Nc2nc(OC3CCOC3)nc3c2CCN(c2ncccc2C(F)(F)F)CC3)cc1 (stereo not shown) [Example 340, 2-(Tetrahydrofuran-3-yloxy)-N-[4-(trifluoromethyl)phenyl]-7-[3-(trifluoromethyl)pyridin-2-yl]-6,7,8,9-tetrahydro-5H-pyrimido[4,5-d]azepin-4-amine] — 13-fold higher, 260 nM
- CN(C)c1nc2c(c(Nc3ccc([N+](=O)[O-])cc3)n1)CCN(c1ncccc1C(F)(F)F)CC2 [Example 72B, N^2,N^2-Dimethyl-N^4-(4-nitro-phenyl)-7-(3-trifluoromethyl-pyridin-2-yl)-6,7,8,9-tetrahydro-5H-pyrimido[4,5-d]azepine-2,4-diamine trifluoroacetic acid salt] — 9-fold higher, 180 nM
- FC(F)(F)c1ccc(Nc2nc(N3CCCCCC3)nc3c2CCN(c2ncccc2C(F)(F)F)CC3)cc1Cl [Example 224, 2-Azepan-1-yl-N-[3-chloro-4-(trifluoromethyl)phenyl]-7-[3-(trifluoromethyl)pyridin-2-yl]-6,7,8,9-tetrahydro-5H-pyrimido[4,5-d]azepin-4-amine] — the same, 20 nM
- CCCSc1nc2c(c(Nc3ccc(C(F)(F)F)cc3)n1)CCN(c1ncccc1C(F)(F)F)CC2 [Example 375, 2-(Propylsulfanyl)-N-[4-(trifluoromethyl)phenyl]-7-[3-(trifluoromethyl)pyridin-2-yl]-6,7,8,9-tetrahydro-5H-pyrimido[4,5-d]azepin-4-amine] — higher, > 6670 nM
- OC[C@@H]1CCCN1c1nc2c(c(Nc3ccc(C(F)(F)F)cc3)n1)CCN(c1ncccc1C(F)(F)F)CC2 [Example 260, [(2S)-1-(4-{[4-(Trifluoromethyl)phenyl]amino}-7-[3-(trifluoromethyl)pyridin-2-yl]-6,7,8,9-tetrahydro-5H-pyrimido[4,5-d]azepin-2-yl)pyrrolidin-2-yl]methanol hydrochloride salt] — 2.5-fold higher, 50 nM
- CC(C)(C)c1ccc(Nc2nc(-c3ccccn3)nc3c2CCN(c2ncccc2C(F)(F)F)CC3)cc1 [Example 171, N-[4-(1,1-Dimethylethyl)phenyl]-2-pyridin-2-yl-7-[3-(trifluoromethyl)pyridin-2-yl]-6,7,8,9-tetrahydro-5H-pyrimido[4,5-d]azepin-4-amine trifluoroacetic acid salt] — 4-fold higher, 80 nM
- COC(=O)c1ccc(Nc2nc(N(C)C)nc3c2CCN(c2ncccc2C(F)(F)F)CC3)cc1 [Example 77B, 4-[2-Dimethylamino-7-(3-trifluoromethyl-pyridin-2-yl)-6,7,8,9-tetrahydro-5H-pyrimido[4,5-d]azepin-4-ylamino]-benzoic acid methyl ester trifluoroacetic acid salt] — 29-fold higher, 580 nM
- FC(F)(F)c1ccc(Nc2nc(N3CCSCC3)nc3c2CCN(c2ncccc2C(F)(F)F)CC3)cc1 [Example 100, [2-Thiomorpholin-4-yl-7-(3-trifluoromethyl-pyridin-2-yl)-6,7,8,9-tetrahydro-5H-pyrimido[4,5-d]azepin-4-yl]-(4-trifluoromethyl-phenyl)-amine] — 1.6-fold higher, 31 nM
- CSc1nc2c(c(Nc3ccc(C(C)(C)C)cc3)n1)CCN(c1ncccc1C(F)(F)F)CC2 [Example 202, N-[4-(1,1-Dimethylethyl)phenyl]-2-(methylsulfanyl)-7-[3-(trifluoromethyl)pyridin-2-yl]-6,7,8,9-tetrahydro-5H-pyrimido[4,5-d]azepin-4-amine] — 620-fold higher, 12400 nM
- CC(C)c1nc2c(c(Nc3ccc(-c4cnco4)cc3)n1)CCN(c1ncccc1C(F)(F)F)CC2 [Example 142, 2-(1-Methylethyl)-N-[4-(1,3-oxazol-5-yl)phenyl]-7-[3-(trifluoromethyl)pyridin-2-yl]-6,7,8,9-tetrahydro-5H-pyrimido[4,5-d]azepin-4-amine] — 100-fold higher, 2090 nM
- FC(F)(F)c1ccc(Nc2nc(N3CCCCC3)nc3c2CCN(c2ncccc2C(F)(F)F)CC3)cc1 [Example 39, [2-Piperidin-1-yl-7-(3-trifluoromethyl-pyridin-2-yl)-6,7,8,9-tetrahydro-5H-pyrimido[4,5-d]azepin-4-yl]-(4-trifluoromethyl-phenyl)-amine] — within 1.5-fold, 18 nM
- CN1CCN(c2nc3c(c(Nc4ccc(C(F)(F)F)cn4)n2)CCN(c2ncccc2C(F)(F)F)CC3)CC1 [Example 193, 2-(4-Methylpiperazin-1-yl)-7-[3-(trifluoromethyl)pyridin-2-yl]-N-[5-(trifluoromethyl)pyridin-2-yl]-6,7,8,9-tetrahydro-5H-pyrimido[4,5-d]azepin-4-amine] — 110-fold higher, 2110 nM
- CC(C)c1nc2c(c(Nc3ccc(C(F)(F)F)cc3)n1)CCN(c1ncccc1N)CC2 [Example 86, [7-(3-Amino-pyridin-2-yl)-2-isopropyl-6,7,8,9-tetrahydro-5H-pyrimido[4,5-d]azepin-4-yl]-(4-trifluoromethyl-phenyl)-amine] — 42-fold higher, 850 nM
- Fc1cccnc1N1CCc2ncnc(Nc3ccc(C(F)(F)F)cc3)c2CC1 [Example 295, 7-(3-Fluoropyridin-2-yl)-N-[4-(trifluoromethyl)phenyl]-6,7,8,9-tetrahydro-5H-pyrimido[4,5-d]azepin-4-amine] — 520-fold higher, 10400 nM
- CN1CCN(c2nc3c(c(Nc4ccc(C(F)(F)F)nc4)n2)CCN(c2ncccc2C(F)(F)F)CC3)CC1 [Example 220, 2-(4-Methylpiperazin-1-yl)-7-[3-(trifluoromethyl)pyridin-2-yl]-N-[6-(trifluoromethyl)pyridin-3-yl]-6,7,8,9-tetrahydro-5H-pyrimido[4,5-d]azepin-4-amine] — 76-fold higher, 1520 nM
- CC(C)(C)c1ccc(Nc2nc(N[C@@H]3CCOC3)nc3c2CCN(c2ncccc2C(F)(F)F)CC3)cc1 [Example 264, N^4-[4-(1,1-Dimethylethyl)phenyl]-N^2-[(3R)-tetrahydrofuran-3-yl]-7-[3-(trifluoromethyl)pyridin-2-yl]-6,7,8,9-tetrahydro-5H-pyrimido[4,5-d]azepine-2,4-diamine] — 65-fold higher, 1300 nM
- Cc1ccccc1Nc1nc2c(c(Nc3ccc(C(F)(F)F)cc3)n1)CCN(c1ncccc1C(F)(F)F)CC2 [Example 278, N^2-(2-Methylphenyl)-N^4-[4-(trifluoromethyl)phenyl]-7-[3-(trifluoromethyl)pyridin-2-yl]-6,7,8,9-tetrahydro-5H-pyrimido[4,5-d]azepine-2,4-diamine trifluoroacetic acid salt] — 34-fold higher, 670 nM
- CN(C)c1nc2c(c(Nc3ccc(C(F)(F)F)cn3)n1)CCN(c1ncccc1C(F)(F)F)CC2 [Example 44, N^2,N^2-Dimethyl-N^4-(5-trifluoromethyl-pyridin-2-yl)-7-(3-trifluoro-methyl-pyridin-2-yl)-6,7,8,9-tetrahydro-5H-pyrimido[4,5-d]azepine-2,4-diamine] — 12-fold higher, 250 nM

Same assay, conditions: read-out: Rat IC50; hydrochloride salt

In the case of `CC(C)(C)c1ccc(Nc2ncnc3c2CCN(c2ncccc2C(F)(F)F)CC3)cc1` [Example 1A, (4-tert-Butyl-phenyl)-[7-(3-trifluoromethyl-pyridin-2-yl)-6,7,8,9-tetrahydro-5H-pyrimido[4,5-d]azepin-4-yl]-amine hydrochloride salt], the IC50 is reported as 49 nM.
